Test results: ChEMBL document CHEMBL1156829 (Proc Natl Acad Sci U S A, 2008)

How the values were obtained:
Plasmodium falciparum [1] = assay: NOVARTIS: Inhibition of Plasmodium falciparum 3D7 (drug-susceptible) proliferation in erythrocyte-based infection assay; type: functional, organism-based; conditions: Plasmodium falciparum, 3D7
[2] = NOVARTIS: Cytotoxicity against human hepatocellular carcinoma cell line (Huh7); type: toxicity, cell-based, Huh-7; conditions: Huh7 cells (hepatocellular carcinoma cell line)
Plasmodium falciparum [3] = assay: NOVARTIS: Inhibition of Plasmodium falciparum W2 (drug-resistant) proliferation in erythrocyte-based infection assay; type: functional, organism-based; conditions: Plasmodium falciparum, W2; read-out: EC50

Compound | EC50 (Plasmodium falciparum [1]) [µM] | CC50 [2] [µM] | EC50 (Plasmodium falciparum [3]) [µM]
COc1cccc2c1[C@@H](OC)[C@@]13O[C@]1(C2=O)[C@H](O)[C@@H](C)[C@](O)(C(=O)[C@@H]1O[C@H]1C)[C@H]3O | 0.264 | 2.82 | 0.226
Brc1ccc2c(c1)c1ccccc1n2CC1CO1 (centres undefined) | 4.73 | 29.4 | 2.25
CCCCc1ccc(C(=O)N(CCC(=O)Nc2nnc(-c3ccc(OC)cc3)s2)CCc2ccc(OC)c(OC)c2)cc1 | 1.24 | > 10 | > 0.757
CCC(c1nc2ccccc2c(=O)n1-c1ccc(F)c(Cl)c1)N(CCc1ccccc1)C(=O)COc1ccccc1 (centres undefined) | 1.19 | > 6.28 | > 0.492
c1cncc(-c2cc(N3CCc4ccccc4C3)nc(-c3ccncc3)n2)c1 | 0.602 | > 10 | 0.794
CC(C)(C)OC(=O)NCC(=O)Oc1cc2oc(=O)cc(-c3ccccc3)c2cc1Cl | > 1.25 | > 10 | > 0.755
CCOC(=O)N1CCN(C(=O)C(=O)NNC(=O)COc2ccc(Cl)cc2Br)CC1 | > 1.25 | > 10 | 0.769
Cc1ccc(C(C(=O)NCc2ccccc2)N(C(=O)c2snc(C(N)=O)c2N)c2ccccc2)o1 (centres undefined) | 1.23 | > 10 | > 0.755
c1cc2cc3ccc(OCCN4CCCCC4)cc3nc2cc1OCCN1CCCCC1 | 0.348 | > 10 | 0.772
O=C(CCC1CCCC1)NCCCCNc1ccnc2cc(Cl)ccc12 | 0.486 | 2.27 | 0.175
O=C(NCCCCNc1ccnc2cc(Cl)ccc12)c1cc(C(F)(F)F)cc(C(F)(F)F)c1 | 0.642 | > 10 | 0.766
COc1ccc(OC)c(-c2ccc(O)c(CNCC(C)C)c2)c1 | 0.95 | > 10 | 0.773
O=C(NC(=S)Nc1ccc([N+](=O)[O-])cc1Cl)c1ccco1 | > 1.53 | > 10 | > 0.769
CC1CCCCN1CCCNc1ncc(C(=O)NCc2ccccc2)c(NCC2CCCCC2)n1 (centres undefined) | 0.582 | > 10 | > 0.759
N#C/C(=C\c1ccccc1OCc1ccc(Cl)cc1Cl)c1nc2ccccc2[nH]1 | 0.348 | > 10 | > 0.772
COc1ccc(-c2csc3nc(COc4cccc(C)c4)nn23)c(O)c1 | > 4.62 | > 100 | 7.59
CCOC(=O)N1CCN(C(=O)C(NC(=O)C2CCC(C)CC2)C(C)C)CC1 (centres undefined) | > 1.67 | > 10 | > 0.755
CCCC(=O)O[C@]1(C(=O)CCl)[C@@H](C)C[C@H]2[C@@H]3CCC4=CC(=O)C=C[C@]4(C)[C@@]3(F)C(=O)C[C@@]21C | > 12.5 | 80 | 6.08
CCn1c2ccccc2c2cc(C=NNC(=O)c3nnn(-c4nonc4N)c3-c3ccccc3)ccc21 | > 1.25 | > 10 | > 0.76
COc1ccc(OC)c(-c2ccc(O)c(CNCC3(O)CCCCC3)c2)c1 | 0.818 | > 10 | 0.762
CCc1ccccc1N1C(=O)CN(Cc2ccccc2)C1=S | > 12.5 | 78.8 | 6
CC(C)(C)c1cc(Br)cc(C=NNc2ccc([N+](=O)[O-])cc2)c1O | > 1.21 | > 10 | 0.761
Cc1ccc(-n2c(C(C)N(CCc3ccccc3)C(=O)c3cccc(F)c3)nc3ccccc3c2=O)c(C)c1 (centres undefined) | > 1.25 | > 10 | 0.764

Compound | EC50 (Plasmodium falciparum [1]) [µM] | CC50 [2] [µM] | EC50 (Plasmodium falciparum [3]) [µM]
CCN1C(=Cc2ccc3c4ccoc4ccc3[n+]2CC)C=Cc2c1ccc1occc21 | 0.534 | > 10 | 0.764
Cc1nc(-c2ccccc2)nc(C(=O)N2CCN(S(=O)(=O)/C=C/c3ccccc3)C(C)C2)c1C(=O)OCC(C)C (centres undefined) | 0.931 | > 10 | 0.785
Cc1csc(NC(=O)C2c3ccccc3C(=O)N(CC(C)C)C2c2cccs2)n1 (centres undefined) | 0.611 | > 10 | 0.785
COc1cc(NC(=O)Cn2ncc3c(=O)oc4ccccc4c32)cc(OC)c1OC | > 12.5 | > 100 | 7.83
Cc1ccc(S(=O)(=O)N(C)CCCNc2ccnc3cc(Cl)ccc23)cc1 | 0.38 | 4.01 | 0.314
c1ccc2c(c1)ccc[n+]2CCCCCC[n+]1cccc2ccccc21 | 0.406 | > 10 | 0.78
Cc1nc2cc(-c3ccc(F)cc3)nn2c(NCCCn2ccnc2)c1C | 0.99 | > 10 | 0.776
O=C1NCCN1CCNS(=O)(=O)c1cc(C(F)(F)F)cc(C(F)(F)F)c1 | 1.2 | > 10 | 0.786
CCOc1ccc(NCc2ccc(O)c3ncccc23)cc1 | 7.61 | > 55.6 | > 4.37
COC(=O)C1=CNC=C(C(=O)OC)C1c1cc(Br)ccc1OC | > 12.2 | > 57.8 | 4.52
CCCCCCN(C(=O)c1ccc(CC)cc1)C(CC)c1nc2ccccc2c(=O)n1-c1cccc(Cl)c1 (centres undefined) | 0.781 | > 10 | 0.782
CC(C)CN(CC(=O)Nc1cc(C(C)(C)C)nn1-c1ccccc1)C(=O)Cc1cccs1 | 1.3 | > 10 | 0.781
COc1ccc(NC2=CC(=O)CC(c3ccccc3)C2)c(OC)c1 (centres undefined) | > 12.5 | > 100 | 7.74
COc1cccc(OC)c1C(=O)Oc1cccc2ccc(C)nc12 | > 1.25 | > 10 | 0.788
O=C(CCl)NCCCN(C(=O)Nc1ccc(Cl)c(Cl)c1)c1ccccc1 | 0.217 | > 0.931 | 0.074
O=[N+]([O-])c1ccc(Cl)c(-c2ccc(C=NNc3nc4ccccc4[nH]3)o2)c1 | 0.946 | > 10 | 0.801
COc1ccc(C=Cc2ccc3ccccc3[n+]2C)cc1 | > 5.37 | > 100 | 7.93
CCCNC(=O)c1cc(NC(=O)c2cc(C(F)(F)F)cc(C(F)(F)F)c2)ccc1N1CCCCC1 | > 1.56 | 10.2 | > 0.816
COc1ccc(OC)c(-c2ccc(O)c(CNCCc3ccccc3F)c2)c1 | 1.14 | > 10 | 0.79
CCCCCCN(C(=O)c1cccc(C(F)(F)F)c1)C(CC)c1nc2ccccc2c(=O)n1-c1ccccc1OC (centres undefined) | 0.793 | > 10 | 0.79
COc1ccc(CCNC(=O)Cn2c(C)cc3ccccc3c2=O)cc1OC | > 1.54 | > 10 | 0.796
COC(=O)C(Nc1ccc(Cl)c(Cl)c1)(c1cc(C)c(O)c(C)c1)C(F)(F)F (centres undefined) | > 1.39 | > 10 | > 0.789
O=C1CC(=O)Nc2cc(S(=O)(=O)NC3CCCCCCC3)ccc2N1 | > 1.25 | > 10 | > 0.796

Compound | EC50 (Plasmodium falciparum [1]) [µM] | CC50 [2] [µM] | EC50 (Plasmodium falciparum [3]) [µM]
CCCN(CC(=O)Nc1cc(C(C)(C)C)nn1-c1cccc(C)c1C)C(=O)C(C)(C)C | > 1.25 | > 10 | > 0.763
Cn1c(=O)[nH]c2c(c1=O)n(C)c(=O)n2C | > 0.957 | > 10 | > 0.799
C1CCC(NP2(NC3CCCCC3)=NP(NC3CCCCC3)(NC3CCCCC3)=NP(NC3CCCCC3)(NC3CCCCC3)=N2)CC1 | 6.61 | 41.4 | 3.15
Nc1ccc(-c2nc(-c3ccc(N)cc3)c3ccccc3n2)cc1 | > 1.25 | > 10 | 0.759
CCOc1ccc(NC(=O)C(C)Sc2nc3ccccc3[nH]2)cc1 (centres undefined) | > 12.5 | > 100 | > 7.6
Cc1cccnc1NC(=O)CCCC(=O)O | > 1.07 | > 10 | 0.788
COc1ccc(CC(=O)NCCCCNc2ccnc3cc(Cl)ccc23)cc1 | 0.55 | 4.5 | 0.345
Cn1c2ccccc2c2nnc(NN=Cc3ccccn3)nc21 | 0.866 | > 10 | 0.793
N#Cc1cc2nc3c(nc2cc1C#N)-c1ccccc1C3=O | 6.97 | 33.2 | 2.56
O=C(/C=C/c1ccccc1)NNC(=O)c1cccnc1 | > 1.25 | > 9.45 | > 0.75
COc1ccc(-c2c[n+](-c3ccccc3)c3n2CCS3)cc1 | 0.778 | > 10 | 0.784
Cc1sc2ncn(CC(=O)N(C)Cc3ccccc3)c(=O)c2c1S(=O)(=O)N1CCOCC1 | > 1.25 | > 10 | > 0.77
COc1cc(NC(C)CCCN(Cc2ccc(F)cc2)C(=O)CCc2ccccc2)c2ncccc2c1 (centres undefined) | 1.4 | 4.62 | 0.361
CCCCc1ccc(NC(C)=O)cc1 | 0.214 | 4.21 | 0.334
CCCC(=O)N1CCN(C(=O)c2nc(-c3ccccc3)nc(CCC)c2C(=O)OCC)CC1C (centres undefined) | 1.2 | > 10 | 0.774
CC1(C)CC(NC(=O)C(=O)NC2CC(C)(C)N(O)C(C)(C)C2)CC(C)(C)N1O | > 1.3 | > 10 | > 0.784
CCCCOc1ccc(-c2nnc(-c3ccc(C)cc3)n2-c2ccccc2)cc1 | > 1.2 | > 10 | > 0.777
Cc1ccc2ncnc(Nc3cccc(C(F)(F)F)c3)c2c1 | 0.947 | 27.9 | 2.17
CC(C)c1ccc(C2N(c3ccccc3)C3(C(=O)c4ccccc4C3=O)C(c3ccc(C(C)C)cc3)C23C(=O)c2ccccc2C3=O)cc1 (centres undefined) | 0.802 | > 10 | 0.792
Cc1ccc(C(C(=O)NC(C)(C)C)N(C(=O)c2ccc(-c3ccccc3)[nH]2)c2ccc(C3CCCCC3)cc2)o1 (centres undefined) | 0.337 | > 10 | 0.765
O=C(NNc1c2ccccc2nc2ccccc12)Nc1ccccc1 | 0.873 | > 10 | 0.756
Cn1c(COc2ccc(Cl)cc2Cl)[n+](C)c2ccccc21 | 0.261 | > 10 | 0.773
